ChEMBL document CHEMBL1201862, “PubChem BioAssay data set” (2004)
The source made the active and inactive calls.

Assays:
[1] = target: Photoreceptor-specific nuclear receptor (Homo sapiens, UniProt Q9Y5X4); assay type: functional, cell-based;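 also: CHO-S cells with Gal4-NCOR and VP16-NR2E3 two-hybrid luciferase reporter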
[2] = reduction of Shn3 3'UTR-driven luciferase in osteoblasts – cell-based, Clone20 osteoblasts, firefly luciferase, cherry-picked, dose response (AID 624132); assay type: functional;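 also: firefly luciferase luminescence from reporter carrying the Shn3 3'UTR in osteoblasts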
[3] = target: T1, Microphthalmia-associated transcription factor (Homo sapiens, UniProt O75030); assay: reducers of TRPM1 reporter luminescence, concentration series – cell-based, SK-MEL-5, cherry-picked, set 3, MITF inhibitor project, dose response (AID 493073); assay type: functional;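 also: SK-MEL-5 melanoma cells with luciferase driven by the MITF target TRPM1 promoter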
T1 sequence (O75030 whole entry): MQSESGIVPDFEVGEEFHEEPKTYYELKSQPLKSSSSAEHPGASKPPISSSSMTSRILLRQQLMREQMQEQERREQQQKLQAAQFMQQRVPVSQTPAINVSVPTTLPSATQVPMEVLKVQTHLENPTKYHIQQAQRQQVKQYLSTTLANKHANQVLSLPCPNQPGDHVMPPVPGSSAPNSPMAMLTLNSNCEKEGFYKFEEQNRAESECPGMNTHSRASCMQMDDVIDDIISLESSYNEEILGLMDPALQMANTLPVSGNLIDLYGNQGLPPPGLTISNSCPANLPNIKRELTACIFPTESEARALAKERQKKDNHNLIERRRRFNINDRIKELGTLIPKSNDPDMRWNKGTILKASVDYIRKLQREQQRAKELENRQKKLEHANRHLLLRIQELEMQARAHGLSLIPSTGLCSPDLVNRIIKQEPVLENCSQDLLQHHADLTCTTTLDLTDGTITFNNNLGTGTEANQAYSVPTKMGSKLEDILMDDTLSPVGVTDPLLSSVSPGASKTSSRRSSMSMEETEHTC

[4] = loss of viability in HepG2 cells – cell-based, CellTiter-Glo, cherry-picked, cytotoxicity control for Shn3 inhibitor project, dose response (AID 624134); assay type: functional
[5] = target: T2, Low molecular weight phosphotyrosine protein phosphatase (Homo sapiens, UniProt P24666); assay type: functional; conditions: read-out: IC50_Mean
T2 sequence (P24666 whole entry): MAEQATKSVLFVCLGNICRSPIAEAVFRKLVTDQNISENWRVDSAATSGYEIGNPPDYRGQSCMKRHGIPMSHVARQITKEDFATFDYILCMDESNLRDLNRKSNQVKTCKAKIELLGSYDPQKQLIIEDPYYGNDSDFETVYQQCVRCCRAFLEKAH

[6] = target: T2, Low molecular weight phosphotyrosine protein phosphatase; assay type: functional; conditions: read-out: IC50_Mean; remark: listed apart in the source
[7] = target: T3, Histone-lysine N-methyltransferase NSD2 (Homo sapiens, UniProt O96028); assay type: biochemical
T3 sequence (O96028 whole entry): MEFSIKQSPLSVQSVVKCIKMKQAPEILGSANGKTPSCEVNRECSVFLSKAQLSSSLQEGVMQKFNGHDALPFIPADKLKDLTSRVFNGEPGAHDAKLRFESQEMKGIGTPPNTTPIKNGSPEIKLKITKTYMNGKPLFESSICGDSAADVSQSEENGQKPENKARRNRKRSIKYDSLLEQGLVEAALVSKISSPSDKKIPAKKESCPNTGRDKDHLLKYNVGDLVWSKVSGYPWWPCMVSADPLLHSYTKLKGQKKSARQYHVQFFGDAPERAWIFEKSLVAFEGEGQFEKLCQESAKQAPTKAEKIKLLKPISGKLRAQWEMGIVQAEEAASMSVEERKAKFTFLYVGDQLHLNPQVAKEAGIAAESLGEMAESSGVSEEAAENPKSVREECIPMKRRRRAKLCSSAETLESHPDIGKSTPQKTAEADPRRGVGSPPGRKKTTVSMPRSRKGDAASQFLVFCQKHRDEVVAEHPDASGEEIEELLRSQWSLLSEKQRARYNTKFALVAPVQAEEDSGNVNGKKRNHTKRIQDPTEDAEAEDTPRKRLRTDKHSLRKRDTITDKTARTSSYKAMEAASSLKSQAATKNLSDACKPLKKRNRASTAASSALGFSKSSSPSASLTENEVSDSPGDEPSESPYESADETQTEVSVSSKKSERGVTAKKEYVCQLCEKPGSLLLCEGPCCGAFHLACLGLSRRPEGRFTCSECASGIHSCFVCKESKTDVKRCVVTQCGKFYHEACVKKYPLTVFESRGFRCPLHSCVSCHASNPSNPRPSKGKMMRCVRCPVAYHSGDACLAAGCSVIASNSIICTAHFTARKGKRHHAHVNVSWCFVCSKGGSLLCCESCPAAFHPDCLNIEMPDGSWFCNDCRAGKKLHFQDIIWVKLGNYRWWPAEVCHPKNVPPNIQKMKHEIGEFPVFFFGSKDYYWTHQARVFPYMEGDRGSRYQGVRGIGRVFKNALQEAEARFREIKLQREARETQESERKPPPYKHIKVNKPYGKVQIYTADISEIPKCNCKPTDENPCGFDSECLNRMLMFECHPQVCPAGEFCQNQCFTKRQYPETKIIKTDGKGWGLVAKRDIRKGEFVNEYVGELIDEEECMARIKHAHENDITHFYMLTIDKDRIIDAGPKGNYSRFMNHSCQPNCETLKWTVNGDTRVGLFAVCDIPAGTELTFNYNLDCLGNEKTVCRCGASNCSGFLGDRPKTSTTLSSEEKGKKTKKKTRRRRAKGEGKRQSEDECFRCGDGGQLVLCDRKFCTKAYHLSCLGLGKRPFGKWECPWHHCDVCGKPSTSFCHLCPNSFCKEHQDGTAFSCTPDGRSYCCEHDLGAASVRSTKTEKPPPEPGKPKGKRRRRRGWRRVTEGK

Prothrombin = Prothrombin (Bos taurus, UniProt P00735); assay: thrombin protease inhibitors – biochemical, fluorescence polarization, uHTS hits, dose response (AID 602369); assay type: functional
[8] = target: 26S proteasome non-ATPase regulatory subunit 14 (Homo sapiens, UniProt O00487); assay: inhibition of proteasome subunit RPN11 – biochemical, fluorescence polarization, uHTS hits, confirmation (AID 602368); assay type: functional
Sequence of 26S proteasome non-ATPase regulatory subunit 14 (O00487 whole entry): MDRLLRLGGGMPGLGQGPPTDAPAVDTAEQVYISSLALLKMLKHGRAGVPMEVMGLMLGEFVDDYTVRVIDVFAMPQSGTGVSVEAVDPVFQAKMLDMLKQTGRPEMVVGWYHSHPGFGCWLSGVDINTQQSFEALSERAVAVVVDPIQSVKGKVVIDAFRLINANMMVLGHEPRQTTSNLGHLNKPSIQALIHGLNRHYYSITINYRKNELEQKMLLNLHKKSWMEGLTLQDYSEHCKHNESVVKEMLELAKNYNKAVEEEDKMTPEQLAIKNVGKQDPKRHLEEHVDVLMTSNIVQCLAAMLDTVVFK

[9] = target: DNA (cytosine-5)-methyltransferase 1 (Homo sapiens, UniProt P26358); assay: inhibition of DNA methylation by DNMT1 – biochemical, fluorescent molecular beacon, confirmation (AID 602386); assay type: functional
Sequence of DNA (cytosine-5)-methyltransferase 1 (P26358 whole entry): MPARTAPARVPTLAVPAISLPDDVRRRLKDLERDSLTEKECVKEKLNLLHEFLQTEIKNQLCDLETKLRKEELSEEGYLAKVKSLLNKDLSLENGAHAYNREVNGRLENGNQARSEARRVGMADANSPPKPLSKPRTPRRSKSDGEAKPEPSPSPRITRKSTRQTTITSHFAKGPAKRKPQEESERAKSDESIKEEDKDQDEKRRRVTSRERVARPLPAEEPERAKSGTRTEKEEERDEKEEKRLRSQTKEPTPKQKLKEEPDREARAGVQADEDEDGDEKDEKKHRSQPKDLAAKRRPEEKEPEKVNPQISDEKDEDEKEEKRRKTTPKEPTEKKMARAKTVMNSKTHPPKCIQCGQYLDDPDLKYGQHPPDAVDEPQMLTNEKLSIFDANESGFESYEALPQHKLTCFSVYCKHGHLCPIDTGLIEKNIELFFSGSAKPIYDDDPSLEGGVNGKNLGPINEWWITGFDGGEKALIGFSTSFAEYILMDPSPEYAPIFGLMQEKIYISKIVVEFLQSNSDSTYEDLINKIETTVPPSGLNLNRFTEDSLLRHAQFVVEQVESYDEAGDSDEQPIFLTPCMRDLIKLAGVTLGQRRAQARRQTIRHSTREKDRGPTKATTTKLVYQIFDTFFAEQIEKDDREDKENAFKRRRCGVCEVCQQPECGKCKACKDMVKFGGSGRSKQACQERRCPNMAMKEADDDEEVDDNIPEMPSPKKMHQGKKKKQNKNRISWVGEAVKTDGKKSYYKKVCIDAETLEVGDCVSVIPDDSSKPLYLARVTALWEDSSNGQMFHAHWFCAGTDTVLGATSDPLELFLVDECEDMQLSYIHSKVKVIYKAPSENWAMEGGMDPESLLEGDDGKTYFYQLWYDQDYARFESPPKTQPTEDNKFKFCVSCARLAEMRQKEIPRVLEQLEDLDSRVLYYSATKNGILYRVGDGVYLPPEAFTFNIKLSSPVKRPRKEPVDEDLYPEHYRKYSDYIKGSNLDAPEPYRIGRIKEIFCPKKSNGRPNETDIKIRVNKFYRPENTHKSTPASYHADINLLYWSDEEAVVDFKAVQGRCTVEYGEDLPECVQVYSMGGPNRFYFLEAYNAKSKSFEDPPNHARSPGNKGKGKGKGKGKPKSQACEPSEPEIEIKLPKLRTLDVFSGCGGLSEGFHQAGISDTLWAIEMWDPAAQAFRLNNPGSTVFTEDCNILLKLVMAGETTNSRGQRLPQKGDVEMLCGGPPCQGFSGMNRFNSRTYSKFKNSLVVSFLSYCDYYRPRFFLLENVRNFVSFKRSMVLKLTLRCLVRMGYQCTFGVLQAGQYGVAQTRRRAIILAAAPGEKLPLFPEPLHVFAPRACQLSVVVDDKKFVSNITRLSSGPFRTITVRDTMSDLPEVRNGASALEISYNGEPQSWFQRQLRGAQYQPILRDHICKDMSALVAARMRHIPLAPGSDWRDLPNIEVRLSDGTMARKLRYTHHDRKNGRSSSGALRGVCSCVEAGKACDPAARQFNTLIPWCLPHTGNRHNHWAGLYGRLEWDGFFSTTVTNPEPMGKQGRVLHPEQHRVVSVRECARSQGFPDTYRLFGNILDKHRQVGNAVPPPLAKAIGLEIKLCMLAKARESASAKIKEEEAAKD

[10] = target: T4, Rac GTPase-activating protein 1 (Homo sapiens, UniProt Q9H0H5); assay: blockers of MgcRacGAP-driven Rac1 GTP hydrolysis – biochemical, ADP Hunter fluorescence, primary and confirmatory, confirmation (AID 624330); assay type: functional
T4 sequence (Q9H0H5 whole entry): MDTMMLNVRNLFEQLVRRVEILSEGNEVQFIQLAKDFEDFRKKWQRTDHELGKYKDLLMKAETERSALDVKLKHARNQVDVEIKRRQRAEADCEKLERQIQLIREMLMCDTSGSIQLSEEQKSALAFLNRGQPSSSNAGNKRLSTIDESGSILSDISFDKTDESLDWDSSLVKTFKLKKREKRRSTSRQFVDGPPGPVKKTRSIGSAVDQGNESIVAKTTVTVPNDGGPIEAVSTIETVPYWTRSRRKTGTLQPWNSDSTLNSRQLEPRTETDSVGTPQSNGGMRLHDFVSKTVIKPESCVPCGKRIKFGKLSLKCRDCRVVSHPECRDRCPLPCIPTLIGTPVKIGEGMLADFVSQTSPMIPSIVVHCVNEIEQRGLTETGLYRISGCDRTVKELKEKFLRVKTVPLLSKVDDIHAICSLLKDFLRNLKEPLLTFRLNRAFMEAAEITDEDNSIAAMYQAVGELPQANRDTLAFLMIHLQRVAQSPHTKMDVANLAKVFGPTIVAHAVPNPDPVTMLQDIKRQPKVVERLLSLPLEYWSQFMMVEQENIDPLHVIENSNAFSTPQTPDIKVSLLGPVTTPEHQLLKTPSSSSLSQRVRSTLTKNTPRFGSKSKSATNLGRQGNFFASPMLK

[11] = target: 72 kDa type IV collagenase (Homo sapiens, UniProt P08253); assay: Dose Response validation of uHTS RPN11 inhibitor hits using a MMP-2 Fluorescence assay.; assay type: functional
Sequence of 72 kDa type IV collagenase (P08253 whole entry): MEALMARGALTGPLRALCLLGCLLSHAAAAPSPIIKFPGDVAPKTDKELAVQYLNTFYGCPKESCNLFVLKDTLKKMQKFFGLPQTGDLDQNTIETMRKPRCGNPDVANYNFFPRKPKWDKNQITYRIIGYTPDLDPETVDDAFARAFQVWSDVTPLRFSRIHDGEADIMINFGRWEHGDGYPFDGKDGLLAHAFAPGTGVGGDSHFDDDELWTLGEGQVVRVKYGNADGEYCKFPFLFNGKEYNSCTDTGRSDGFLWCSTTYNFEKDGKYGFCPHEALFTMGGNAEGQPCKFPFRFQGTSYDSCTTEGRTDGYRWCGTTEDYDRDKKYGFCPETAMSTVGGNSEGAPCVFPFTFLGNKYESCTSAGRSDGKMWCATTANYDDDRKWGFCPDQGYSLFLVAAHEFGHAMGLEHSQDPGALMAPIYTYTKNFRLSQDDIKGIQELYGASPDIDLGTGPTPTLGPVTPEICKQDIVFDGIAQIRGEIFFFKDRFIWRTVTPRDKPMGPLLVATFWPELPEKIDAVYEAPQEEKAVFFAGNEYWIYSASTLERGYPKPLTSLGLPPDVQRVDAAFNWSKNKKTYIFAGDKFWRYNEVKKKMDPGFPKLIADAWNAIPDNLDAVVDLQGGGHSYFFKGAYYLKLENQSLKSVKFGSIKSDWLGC

[12] = target: T5, Apoptotic protease-activating factor 1 (Homo sapiens, UniProt O14727); assay: SAR analysis of small molecule Activators of Apaf-1 in a Fluorescent assay.; assay type: functional; conditions: read-out: EC50_Mean;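 also: caspase-3 cleavage of fluorogenic Rh110 DEVD substrate downstream of apoptosome activation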
T5 sequence (O14727 whole entry): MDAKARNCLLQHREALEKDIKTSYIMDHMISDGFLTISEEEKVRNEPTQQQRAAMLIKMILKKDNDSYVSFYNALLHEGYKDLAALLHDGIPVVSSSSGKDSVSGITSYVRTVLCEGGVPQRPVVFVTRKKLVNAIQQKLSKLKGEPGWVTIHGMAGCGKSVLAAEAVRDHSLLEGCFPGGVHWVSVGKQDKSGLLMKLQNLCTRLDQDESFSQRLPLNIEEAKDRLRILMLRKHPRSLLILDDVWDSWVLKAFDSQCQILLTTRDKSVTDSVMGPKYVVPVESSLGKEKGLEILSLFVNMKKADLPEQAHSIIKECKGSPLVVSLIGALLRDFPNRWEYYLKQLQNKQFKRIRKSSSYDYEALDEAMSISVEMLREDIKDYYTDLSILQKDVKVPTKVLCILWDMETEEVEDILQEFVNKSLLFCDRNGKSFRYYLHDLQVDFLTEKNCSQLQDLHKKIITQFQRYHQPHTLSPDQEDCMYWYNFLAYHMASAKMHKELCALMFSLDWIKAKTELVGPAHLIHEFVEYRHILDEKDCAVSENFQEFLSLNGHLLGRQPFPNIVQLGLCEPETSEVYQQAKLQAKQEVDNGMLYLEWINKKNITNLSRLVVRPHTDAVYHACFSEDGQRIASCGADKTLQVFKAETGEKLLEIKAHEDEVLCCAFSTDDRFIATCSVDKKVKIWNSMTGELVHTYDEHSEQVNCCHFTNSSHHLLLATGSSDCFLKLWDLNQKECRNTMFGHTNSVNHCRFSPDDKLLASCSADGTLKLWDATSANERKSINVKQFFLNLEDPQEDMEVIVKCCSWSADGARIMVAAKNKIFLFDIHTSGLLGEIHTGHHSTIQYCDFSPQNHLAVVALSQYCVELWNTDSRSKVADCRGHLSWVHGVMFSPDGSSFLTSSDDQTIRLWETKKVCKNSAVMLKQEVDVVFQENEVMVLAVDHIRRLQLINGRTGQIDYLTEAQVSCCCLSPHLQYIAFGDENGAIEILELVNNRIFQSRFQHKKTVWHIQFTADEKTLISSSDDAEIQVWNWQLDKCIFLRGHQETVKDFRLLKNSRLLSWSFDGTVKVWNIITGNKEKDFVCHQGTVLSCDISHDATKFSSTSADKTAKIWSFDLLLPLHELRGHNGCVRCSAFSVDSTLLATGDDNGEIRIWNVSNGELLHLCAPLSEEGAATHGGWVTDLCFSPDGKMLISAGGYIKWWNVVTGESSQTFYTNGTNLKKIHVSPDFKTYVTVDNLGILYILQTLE

[13] = target: Diacylglycerol lipase-beta (Mus musculus, UniProt Q91WC9); assay: Late stage assay provider results from the probe development effort to identify inhibitors of diacylglycerol lipase, beta (DAGLb): fluorescence-based dose-response biochemical gel-based competitive Activity-Based Protein Profiling (ABPP) inhibition of DAGLb in vitro.; assay type: functional
Sequence of Diacylglycerol lipase-beta (Q91WC9 whole entry): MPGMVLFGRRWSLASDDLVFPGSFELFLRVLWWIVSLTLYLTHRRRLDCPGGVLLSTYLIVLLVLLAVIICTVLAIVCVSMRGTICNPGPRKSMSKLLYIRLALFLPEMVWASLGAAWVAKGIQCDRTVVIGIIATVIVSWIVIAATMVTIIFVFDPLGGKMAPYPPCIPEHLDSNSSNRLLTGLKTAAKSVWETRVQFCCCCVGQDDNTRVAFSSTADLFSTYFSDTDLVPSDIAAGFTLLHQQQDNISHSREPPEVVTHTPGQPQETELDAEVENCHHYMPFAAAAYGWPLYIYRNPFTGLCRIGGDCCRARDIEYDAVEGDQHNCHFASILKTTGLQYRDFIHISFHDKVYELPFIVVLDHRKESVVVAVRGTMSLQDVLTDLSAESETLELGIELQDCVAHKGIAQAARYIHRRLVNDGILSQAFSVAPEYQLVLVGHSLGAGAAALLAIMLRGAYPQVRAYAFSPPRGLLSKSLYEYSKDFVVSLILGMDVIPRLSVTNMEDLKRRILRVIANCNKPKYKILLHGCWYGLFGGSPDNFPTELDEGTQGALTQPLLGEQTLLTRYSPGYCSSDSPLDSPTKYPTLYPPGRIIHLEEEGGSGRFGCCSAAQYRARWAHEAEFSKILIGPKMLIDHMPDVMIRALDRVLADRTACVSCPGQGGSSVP

[14] = target: T6, ATP-dependent translocase ABCB1 (Homo sapiens, UniProt P08183); assay: inhibition of BCRP-mediated JC-1 efflux – Ig-MXP3 cells, flow cytometry, set 2, dose response (AID 504566); assay type: functional; conditions: read-out: EC50_MICROM_;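 also: flow cytometry median green fluorescence of retained JC-1 dye; potency of efflux pump inhibition measured as rising substrate retention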
T6 sequence (P08183 whole entry): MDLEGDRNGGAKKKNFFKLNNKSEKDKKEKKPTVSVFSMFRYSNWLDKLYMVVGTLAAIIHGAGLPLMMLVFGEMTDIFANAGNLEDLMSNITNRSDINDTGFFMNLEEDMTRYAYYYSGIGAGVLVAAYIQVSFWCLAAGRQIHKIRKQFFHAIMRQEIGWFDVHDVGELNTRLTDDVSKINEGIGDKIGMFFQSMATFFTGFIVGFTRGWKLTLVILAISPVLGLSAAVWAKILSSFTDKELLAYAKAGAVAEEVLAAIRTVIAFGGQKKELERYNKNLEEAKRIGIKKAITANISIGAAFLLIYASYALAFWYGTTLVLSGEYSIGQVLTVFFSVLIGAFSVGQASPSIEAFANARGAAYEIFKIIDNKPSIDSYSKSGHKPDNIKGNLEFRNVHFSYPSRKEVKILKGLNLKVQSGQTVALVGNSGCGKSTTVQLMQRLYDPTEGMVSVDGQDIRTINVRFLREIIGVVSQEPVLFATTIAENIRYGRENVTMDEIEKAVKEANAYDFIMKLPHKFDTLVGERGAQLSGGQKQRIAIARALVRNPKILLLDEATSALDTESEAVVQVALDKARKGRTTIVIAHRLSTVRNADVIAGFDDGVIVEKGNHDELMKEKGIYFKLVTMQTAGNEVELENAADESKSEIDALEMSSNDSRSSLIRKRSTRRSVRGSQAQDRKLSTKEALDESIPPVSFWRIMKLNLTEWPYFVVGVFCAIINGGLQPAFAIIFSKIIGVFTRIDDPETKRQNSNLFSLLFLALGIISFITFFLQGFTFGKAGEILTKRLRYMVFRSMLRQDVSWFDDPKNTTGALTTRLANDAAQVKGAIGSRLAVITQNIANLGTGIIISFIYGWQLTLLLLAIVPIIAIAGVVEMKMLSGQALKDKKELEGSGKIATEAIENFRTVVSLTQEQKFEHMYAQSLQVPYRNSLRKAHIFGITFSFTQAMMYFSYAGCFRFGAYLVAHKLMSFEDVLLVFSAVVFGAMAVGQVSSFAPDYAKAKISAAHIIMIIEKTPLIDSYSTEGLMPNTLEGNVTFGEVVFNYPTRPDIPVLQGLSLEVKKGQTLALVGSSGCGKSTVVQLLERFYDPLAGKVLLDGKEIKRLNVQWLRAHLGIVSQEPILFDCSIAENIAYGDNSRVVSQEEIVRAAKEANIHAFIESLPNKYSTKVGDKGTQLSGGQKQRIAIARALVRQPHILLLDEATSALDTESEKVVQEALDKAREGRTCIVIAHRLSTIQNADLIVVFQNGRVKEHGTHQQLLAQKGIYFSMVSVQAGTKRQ

[15] = target: T6, ATP-dependent translocase ABCB1; assay: P-gp JC-1 efflux blockade concentration-response – Jurkat-DNR cells, flow cytometry, set 2, dose response (AID 504569); assay type: functional; conditions: read-out: EC50_MICROM_;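 also: potency of pump inhibitors that raise cellular JC-1 green fluorescence up to the nicardipine level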
[16] = target: Nuclear receptor subfamily 5 group A member 2 (Homo sapiens, UniProt O00482); assay type: functional, cell-based;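 also: HEK293T cells transfected with LRH-1 and a StAR promoter luciferase reporter; potency for inhibitors that lower LRH-1 driven reporter light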
[17] = nonselective StAR promoter luciferase inhibitors – cell-based, luminescence, luciferase reporter, counter-screen for LRH-1 inverse agonist project, dose response (AID 651969); assay type: functional
Steroidogenic factor 1 = Steroidogenic factor 1 (Homo sapiens, UniProt Q13285); assay: Counterscreen for inverse agonists of the liver receptor homolog-1 (LRH-1; NR5A2): Luminescence-based cell-based high throughput dose response assay to identify inverse agonists of the Steroidogenic Factor 1 Nuclear Receptor (SF1; NR5A1).; assay type: functional
Sequence of Steroidogenic factor 1 (Q13285 whole entry): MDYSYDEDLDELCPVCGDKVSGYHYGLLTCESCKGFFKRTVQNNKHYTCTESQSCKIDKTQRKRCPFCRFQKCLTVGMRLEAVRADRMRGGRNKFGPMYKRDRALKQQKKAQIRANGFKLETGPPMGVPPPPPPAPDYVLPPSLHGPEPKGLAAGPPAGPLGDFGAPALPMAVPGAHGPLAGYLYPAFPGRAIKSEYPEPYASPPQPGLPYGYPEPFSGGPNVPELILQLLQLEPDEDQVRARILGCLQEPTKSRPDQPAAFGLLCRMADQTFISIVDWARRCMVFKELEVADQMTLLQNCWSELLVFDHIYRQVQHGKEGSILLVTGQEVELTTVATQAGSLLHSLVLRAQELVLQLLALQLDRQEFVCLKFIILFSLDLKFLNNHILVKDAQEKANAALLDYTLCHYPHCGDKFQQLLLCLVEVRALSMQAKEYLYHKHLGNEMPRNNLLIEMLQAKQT

Interleukin-8 [18] = target: T7, Interleukin-8 (Homo sapiens, UniProt P10145); assay: Dose Response confirmation of uHTS small molecule hits for cystic fibrosis induced NFkb Inhibitors in a TNFa-induced IL8 counterscreen.; assay type: functional; conditions: read-out: IC50_Mean
T7 sequence (P10145 whole entry): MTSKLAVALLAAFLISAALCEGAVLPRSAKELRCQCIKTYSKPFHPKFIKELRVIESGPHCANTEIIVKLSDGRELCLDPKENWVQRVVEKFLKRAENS

Interleukin-8 [19] = target: T7, Interleukin-8; assay: Dose Response confirmation of uHTS small molecule hits for cystic fibrosis induced NFkb Inhibitors in a PAF-induced IL8 counterscreen.; assay type: functional; conditions: read-out: IC50_Mean
[20] = Counterscreen for inhibitors of Trypanosoma brucei methionyl tRNA synthetase (MetRS): Luminescence-based cell-based high throughput dose response assay to identify compounds that are cytotoxic to Jurkat human T lymphocyte cells.; assay type: functional

## Cc1cc(C(=O)COc2cccnc2[N+](=O)[O-])c(C)n1-c1ccccc1
[1]
  IC50: 0.517 µM (active)
[2]
  AC50: 34.8 µM (active)
[3]
  AC50: 1.48 µM (active)
[4]
  AC50: > 70 µM (inactive)

## Fc1ccccc1-c1nc(NC2CCCC2)c2ccccc2n1
[5]
  IC50: 13.1 µM (active)
[6]
  IC50: 7.48 µM (active)

## CC1=NN(c2ccccc2)C(=O)C1/C=C1\NC(=S)NC1=O (configuration not stated)
[7]
  AC50: 4.16 µM (active)
Prothrombin
  IC50: 52.8 µM (active)
[8]
  IC50: 32.4 µM (active)
[9]
  IC50: 8.39 µM (active)
[10]
  IC50: 238 µM (active)
[11]
  IC50: > 100 µM (inactive)

## Cc1ccc(NCC(C)C(=O)O)cc1C (configuration not stated)
[12]
  EC50: > 100 µM (inactive)

## O=C(N1CCCCC1Cc1ccccc1)n1cc(-c2ccc(OC(F)(F)F)cc2)nn1 (configuration not stated)
[13]
  IC50: 0.052 µM (active)

## COc1ccccc1-c1cc2nc(-c3ccccc3)cc(N3CCN(C(=O)c4ccccc4)CC3)n2n1
[14]
  EC50: 0.72 µM (active)
[15]
  EC50: 2.87 µM (active)

## O=C(CN1C(=O)NC2(CCCCC2)C1=O)NCCc1c[nH]c2ccccc12
[16]
  IC50: 10.3 µM (inactive)
[17]
  IC50: 35.9 µM (inactive)
Steroidogenic factor 1
  IC50: 5.36 µM (active)

## c1cc(-c2cnc3cccnn23)c2cccnc2c1
Interleukin-8 [18]
  IC50: 56.5 µM (inactive)
Interleukin-8 [19]
  IC50: 14.4 µM (inactive)

## COc1ccc(N=C(S)N2CCC(c3nc4cc(Cl)ccc4[nH]3)CC2)c(OC)c1
[20]
  IC50: 83.3 µM (inactive)
